In brackets after ≈: the same amount, converted by molar mass.
Tests used:
Type in all cases: cell-based
[1] = tested on: Streptococcus pyogenes 1079; assay: MIC, microtiter broth dilution (NCCLS M100-S14), S. pyogenes 1079 (ermB); conditions: Streptococcus pyogenes 1079
Method: (§1) The assay described herein includes a panel of bacterial strains assembled to include a variety of target pathogenic species, including representatives of macrolide resistance mechanisms that have been characterized. In many cases, both the macrolide-susceptible parent strain and the macrolide-resistant strain derived from it are available to provide a more accurate assessment of the compound's ability to circumvent the resistance mechanism. The assay is performed in microtiter trays and interpreted according to Performance Standards for Antimicrobial Susceptibility Testing; 14th Informational Supplement (M100-S14), published by The National Committee for Clinical Laboratory Standards (NCCLS) guidelines; the MIC is used to compare strains. Compounds are initially dissolved in DMSO as 40 mg/ml stock solutions.

[2] = tested on: Streptococcus pneumoniae 1016; assay: MIC, microtiter broth dilution (NCCLS M100-S14), S. pneumoniae 1016 (susceptible); conditions: Streptococcus pneumoniae 1016
Method: as §1

[3] = tested on: Streptococcus pneumoniae 1095; conditions: Streptococcus pneumoniae 1095; microtiter broth dilution
Method: as §1

[4] = tested on: Streptococcus pneumoniae 1175; conditions: Streptococcus pneumoniae 1175; microtiter broth dilution
Method: as §1

[5] = tested on: Haemophilus influenzae 1218; assay: MIC, microtiter broth dilution (NCCLS M100-S14), H. influenzae 1218 (susceptible); conditions: Haemophilus influenzae 1218
Method: as §1

Row | Structure (SMILES) | MIC S. pyogenes 1079 [1] [µg/mL] | MIC S. pneumo. 1016 [2] [µg/mL] | MIC S. pneumo. 1095 [3] [µg/mL] | MIC S. pneumo. 1175 [4] [µg/mL] | MIC H. influenzae 1218 [5] [µg/mL]
1 | CCC1OC(=O)C(C)C(=O)C(C)C(OC2OC(C)CC(N(C)C)C2O)C(C)(OC)CC(C)C(=O)C(C)C2N(CC3CN(Cc4ccnc5ccccc45)C3)C(=O)OC12C (stereo not shown) [4.13] | 32 (≈ 38.9 µM) | <0.06 | 0.5 (≈ 0.608 µM) | <0.06 | 1 (≈ 1.22 µM)
2 | CCC1OC(=O)C(C)C(=O)C(C)C(OC2OC(C)CC(N(C)C)C2O)C(C)(OC)CC(C)C(=O)C(C)C2N(CC3CN(Cc4cccc5ncccc45)C3)C(=O)OC12C (stereo not shown) [4.15] | 32 (≈ 38.9 µM) | <0.06 | <0.06 | <0.06 | 0.25 (≈ 0.304 µM)
3 | CCC1OC(=O)C(C)C(=O)C(C)C(OC2OC(C)CC(N(C)C)C2O)C(C)(OC)CC(C)C(=O)C(C)C2N(CC3CN(Cc4nc5ccccc5[nH]4)C3)C(=O)OC12C (stereo not shown) [4.16] | >64.00 | <0.06 | 2 (≈ 2.46 µM) | 0.25 (≈ 0.308 µM) | 0.5 (≈ 0.616 µM)
4 | CCC1OC(=O)C(C)C(=O)C(C)C(OC2OC(C)CC(N(C)C)C2O)C(C)(OC)CC(C)C(=O)C(C)C2N(CC3CN(Cc4cccc5nccnc45)C3)C(=O)OC12C (stereo not shown) [4.17] | 64 (≈ 77.7 µM) | <0.06 | 0.5 (≈ 0.607 µM) | 0.12 (≈ 0.146 µM) | 0.25 (≈ 0.303 µM)
5 | CCC1OC(=O)C(C)C(=O)C(C)C(OC2OC(C)CC(N(C)C)C2O)C(C)(OC)CC(C)C(=O)C(C)C2N(CC3CN(Cc4c[nH]c5cnccc45)C3)C(=O)OC12C (stereo not shown) [4.19] | 64 (≈ 78.8 µM) | <0.06 | <0.06 | 1 (≈ 1.23 µM) | 0.5 (≈ 0.616 µM)
6 | CCC1OC(=O)C(C)C(=O)C(C)C(OC2OC(C)CC(N(C)C)C2O)C(C)(OC)CC(C)C(=O)C(C)C2N(CC3CN(Cc4cccc5nc[nH]c45)C3)C(=O)OC12C (stereo not shown) [4.20] | 16 (≈ 19.7 µM) | <0.06 | 0.12 (≈ 0.148 µM) | 0.25 (≈ 0.308 µM) | 0.25 (≈ 0.308 µM)
7 | CCC1OC(=O)C(C)C(=O)C(C)C(OC2OC(C)CC(N(C)C)C2O)C(C)(OC)CC(C)C(=O)C(C)C2N(CC3CN(Cc4cnn(-c5cccc(F)c5)c4)C3)C(=O)OC12C (stereo not shown) [4.21] | 64 (≈ 74.8 µM) | <0.06 | 2 (≈ 2.34 µM) | <0.06 | 0.5 (≈ 0.584 µM)
8 | CCC1OC(=O)C(C)C(=O)C(C)C(OC2OC(C)CC(N(C)C)C2O)C(C)(OC)CC(C)C(=O)C(C)C2N(CC3CN(Cc4n[nH]c5ccccc45)C3)C(=O)OC12C (stereo not shown) [4.22] | 32 (≈ 39.4 µM) | <0.06 | 2 (≈ 2.46 µM) | 0.25 (≈ 0.308 µM) | 0.12 (≈ 0.148 µM)
9 | CCC1OC(=O)C(C)C(=O)C(C)C(OC2OC(C)CC(N(C)C)C2O)C(C)(OC)CC(C)C(=O)C(C)C2N(CC3CN(Cc4n[nH]c5cc(Cl)ccc45)C3)C(=O)OC12C (stereo not shown) [4.23] | 16 (≈ 18.9 µM) | <0.06 | 4 (≈ 4.73 µM) | 0.12 (≈ 0.142 µM) | <0.06
10 | CCC1OC(=O)C(C)C(=O)C(C)C(OC2OC(C)CC(N(C)C)C2O)C(C)(OC)CC(C)C(=O)C(C)C2N(CC3CN(Cc4ccc5cnccn45)C3)C(=O)OC12C (stereo not shown) [4.24] | 64 (≈ 78.8 µM) | <0.06 | 0.5 (≈ 0.616 µM) | <0.06 | 0.5 (≈ 0.616 µM)
11 | CCC1OC(=O)C(C)C(=O)C(C)C(OC2OC(C)CC(N(C)C)C2O)C(C)(OC)CC(C)C(=O)C(C)C2N(CC3CN(Cc4ccc5nccn5c4)C3)C(=O)OC12C (stereo not shown) [4.25] | 64 (≈ 78.8 µM) | <0.06 | 0.38 (≈ 0.468 µM) | 0.31 (≈ 0.382 µM) | 0.62 (≈ 0.764 µM)
